Laboratory results from patent US6979447B2, “Immunomodulation and effect on cell processes relating to serotonin family receptors” (Philadelphia Health and Education Corporation, priority 2001, dated 2005).

Key:
human lymphocytes [1] = experiment: Viable cell counts (trypan blue) during ConA stimulation of human lymphocytes; format: cell-based; conditions: ConA 10 μg/ml, manual trypan blue counts, FIG. 11
Procedure: FIG. 11 is a diagram depicting the effect of a 5HT type 1 receptor antagonist and a 5HT type 2 receptor antagonist on the cell numbers occurring during the mitogenic stimulation of human lymphocyte activation. The cells were stimulated with 10 μg/ml ConA. The cells were repurified on a Ficoll gradient prior to addition of the inhibitor. Trypan blue exclusion was used to count the viable cells.
To further assess the effects of propanolol (a general 5-HTR 1 antagonist) and risperidone (a general 5-HTR 2 antagonist) on the mitogenically stimulated lymphocyte culture, the number of viable cells were manually counted as the assay progressed. If the cells were not stimulated, there was no detectable change in the number of viable cells. When the cells were stimulated with ConA, a small lag period was observed and the beginning of the growth phase compared to the stimulation response curve observed in the absence of the inhibitor. […] Apparently, there is no decrease or increase compared with the starting cell numbers. It is unclear whether or not this is due too anergy, an inability to initiate the activation pathway, or both. […] Thus, based on the data presented here, the classes of antagonists that inhibit the type 2 serotonin receptors appear to be rate limiting for the lymphocyte activation processes.

[2] = test system: allogeneic CTL response to P815 cells; experiment: Murine allograft model, CTL killing of P815 target cells by splenocytes; format: in vivo, C57BL/6J mice; conditions: tail vein bolus 200 μg/injection on days 6 and 8, sacrificed day 14, FIG. 13
Procedure: The in vivo validation screen used was an art-recognized murine allogeneic rejection model as described in Zhan et al., 2000. For this assay, a complete MHC miss-match system was employed wherein 5×10^6 P815 cells ([H-2^d] DBA/2 mastocytoma) were injected into the peritoneal cavity of C57BL/6J (H-2^b) mice on day 0 of the experiment. These mice typically generate a strong cytotoxic T lymphocyte (CTL) reaction in response to P815 cells. Following the initial P815 cell inoculation, the mice were allowed to develop a CTL response (this usually takes about 10-14 days). […] Mice were then sacrificed on day 14 of the experiment as indicated in the figures; and the allogeneic CTL response was assayed as described previously (Tretiakova et al., 2000, Nature Biotechnology 18:984-988). The primary spleen cells from the treated and untreated animals were used in the direct CTL readout. Freshly obtained primary spleen cells were incubated with the [^3H] labeled target cells (P815 cells) at 100:1, 50:1, 25:1, and 12.5:1 ratios for 3.5 hours at 37° C. and harvested using a PHD harvester. The percentage of specific killing was determined using the formula % kill=(S−E)/S, where S is the amount of the DNA retained by the target cells in the absence of the effector cells and E is the amount of retained DNA in the presence of the effector cells (expressed in counts per minute; cpm).
This is an art-recognized model of allograft […] rejection based on that described by […]. (2000). In this model, there is a complete MHC mismatch between the P815 cells (H-2^d) and the C57BL6 mouse (H-2^b), thus ensuring an aggressive immune response. The data disclosed in FIG. 13, depicts results of experiments that included 6 treatment groups, each group consisting of three mice. Each mouse received 5×10^6 P815 cells injected into the peritoneal cavity on day 0 of the study. The first group was an untreated control group, which was used to establish the baseline response of the mice against the allogeneic stimulus. These mice, without any further treatments, were sacrificed, as were the other treatment groups, on day 14 of the study and their splenocytes assayed for target-specific killing of the P815 cells.
The average kill observed for the untreated group was about 45% at an effector to target ratio of 100:1. […] The timing of the drug administration was selected to ensure that the T cells were fully activated prior to the drug treatment. The third group was treated with propanolol, a 5HT-1 antagonist. All of the 5HT receptor antagonist-treated groups were treated as described for the risperidone-treated group. The fourth group was treated chronically with CyclosporinA. The Cyclosporin A was administered ip at a dosage of 100 μg/injection starting two days prior to the onset of the study, i.e., at day-2, and the injections were continued on a daily basis for the duration of the study.
Finally, studies conducted in vivo using the CD8-dependent allograft rejection model, in which P815 cells (a rapidly growing cell line taken from a mastocytoma in a DBA mouse), were expanded and used to create a robust rejection response in a C57BL6 mouse. In this study the mice received 5×10^6 P815 cells injected into their peritoneal cavity on day 0 of the study. The first group was an untreated control group (naïve animals), used to acquire the baseline response of the mice against the allogeneic stimulus. The positive controls were treated with the allogeneic cells without any further treatments. These animals were used to assess the induced allogeneic response against the P815 cells.
All treatment groups were sacrificed on day 14 of the study and their splenocytes assayed for target-specific killing of the P815 cells (the averaged overall kill observed for the positive control group was about 45% at an effector to target ratio of 100:1). The serotonin-specific compounds were administered via tail vein injection (300 μg/injection) on days 5 and 7 of the study. […]

human lymphocytes [3] = experiment: Human mitogenic (ConA) stimulation, 3H-thymidine incorporation; format: cell-based; conditions: harvested 72 hours
Procedure: Blood from healthy volunteers was drawn using venipuncture, using Vacutainer collection sets and heparinized collection vials. The blood was diluted 1:1 using HBSS to a total volume of 30 ml in 50 ml conical tubes (Fisher Scientific, Co., Pittsburgh, Pa.). […] Cells from the buffy coats were collected and the residual Histopaque was washed away using repeated centrifugations in HBSS. After washes, cells were resuspended at 5 million cells per ml in RPMI, supplemented with 2% FBS. To remove adherent cells, the suspension was plated onto a 6 well flat-bottom plate (Corning Costar), 3 ml/well, and incubated for 2 hours at 37° C., 5% CO2. Non-adherent cells were harvested after this incubation, were counted and resuspended in RPMI supplemented with 10% human serum (Sigma).
All drugs were pre-plated before the cell suspension was added onto each well of a 96-well round-bottom plate. All experimental conditions were assayed in at least triplicate. Cells suspended in RPMI supplemented with 10% human serum were plated at 100,000 cells per well to a final volume of 200 μl. […] Control samples received no ConA stimulation. The plates were incubated at 37° C. and 5% CO2. One microCurie of tritiated thymidine was added to each well after 60 hours, and the plates were harvested 12 hours later.

human lymphocytes [4] = experiment: Human mixed lymphocyte reaction (allogeneic stimulation); format: cell-based; conditions: harvested 120 hours
Description: Blood from two healthy, non-related, donors was taken as described above. Peripheral blood mononuclear cells were isolated as described previously elsewhere. The adherent cells were separated from the suspension cells as described previously for both donors. Suspension cells from both donors (donors A and B) were used as responders. The remaining adherent cells from each of the donors were used as stimulators against a different donor (suspension A against adherent B and adherent A against suspension B). The stimulator cells were irradiated at 35 Gy. Drugs were pre-plated onto 96 well, U-bottom plates in triplicate. 200,000 “stimulator” cells in RPMI supplemented with 10% human serum were then plated in each well. 200,000 “responder” cells in the same medium were then plated over stimulators to a final volume of 200 μl/well. Background controls received either no stimulator cells, or no responder cells. The plates were incubated at 37° C. and 5% CO2. 1 μCi of tritiated thymidine was added to each well after 4.5 days, and the plates were harvested 12 hours later.

[5] = test system: RPMI 8226 multiple myeloma cells; experiment: RPMI 8226 cell proliferation / viability (trypan blue, MTT, 3H-thymidine); format: cell-based, human; conditions: low dose-titration, FIGS. 23, 24 and 25
Procedure: The human plasmacytoma (multiple myeloma) cell line, RPMI 8226 (American Type Culture Collection, Manassas, Va.), was cultured in RPMI 1640 supplemented with 10 mM HEPES, 1 mM sodium pyruvate, 4.5 g/L glucose, 1.5 g/L bicarbonate and 20% FBS (non-heat inactivated).
Cell proliferation was assayed by three methods—Trypan Blue Exclusion was used to quantify the number of viable cells in culture; 3-(4,5-dimethylthiazol-2-yl)-2,5-diphenyl tetrazolium bromide (MTT) reduction was used to assay mitochondrial activity (and thus cell viability); and ^3H-Thymidine uptake was employed to assay for active DNA synthesis.
The following 5-HT receptor modulating compounds were tested for their effects on RPMI 8226 cells in vitro cultured at the described densities and across the indicated concentration ranges.

RPMI-8226 cells = experiment: Hematoxylin-eosin / bis-benzamide staining of RPMI-8226 cytospins; format: cell-based, human
Procedure: 2.0×10^5 RPMI-8226 cells were cultured, in 6-well culture plates, in the presence of the indicated drug concentrations, in a total of 5 mL RPMI-1640 supplemented with 10% FBS. Each well was harvested in its entirety and divided into two identical samples for cytospins.
1.0×10^5 RPMI-8226 cells from each treatment group were loaded into Cyto-funnels and centrifuged at 500 rpm for 4 minutes with medium acceleration. Slides were then fixed through graded methanol in PBS (100%, 5 minutes; 80%, 5 minutes; 50%, 5 minutes), washed for 5 minutes in PBS and stored in PBS at 4° C. until stained.
Cytospun slides were stained with Hematoxylin and Eosin, followed by the nuclear stain, bis-benzamide, rinsed and mounted according to standard staining protocols. Slides were visualized under both brightfield and fluorescent light to generate matched images of the same slide field (see, e.g., FIGS. 28 and 29).

cells = experiment: Cell morphology change on inhibition of serotonergic signalling; format: cell-based; conditions: after 24 hours of treatment, FIG. 30
Procedure: Briefly, cells were incubated with a 5-HTR antagonist (e.g., a selective type 1B inhibitor SD 216641) and the effects of treatment were assessed after 24 hours. […] For instance, detection of cell changes can be assessed using optical instruments (electron and light microscopy, as well as fluorescence activated cell sorting, and the like), or any other device that assesses and detects changes in cell size, density, morphology, and the like. Such devices are well known in the art and are not recounted here.

For CC(C)NC[C@H](O)COc1cccc2ccccc12 (racemic) [propanolol], the “effect on number of viable cells” value (human lymphocytes [1]) was “prevents the cell from growing” and the “effect on allograft (CTL) response” value [2] was “did not protect the mice from the allograft rejection response”.
With COc1ccc(NC(=O)c2ccc(-c3ccc(-c4noc(C)n4)cc3C)cc2)cc1OCCN(C)C [SB 216641] the “effect on activation / proliferative response” value (human lymphocytes [3]; ConA 5 μg/ml, FIGS. 7A, 8A, 9A) was “complete inhibition of the activation response”, the IC50 (human lymphocytes [3]; ConA (5 μg/ml) stimulation of human lymphocytes, FIG. 7A, read-out: apparent IC50) was ~200 nM and the “effect on activation / proliferative response” value (human lymphocytes [4]; allogeneic stimulation, FIGS. 7B, 8B, 9B) was “complete inhibition of the activation response”. For the same compound, the IC50 (human lymphocytes [4]; allogeneic stimuli (mixed lymphocyte reaction), FIG. 7B, read-out: apparent IC50) was ~50 nM, the “effect on growth of RPMI-8226 cells” value [5] was “completely inhibited the growth of the cancer cells” and the “chromatin / nuclear morphology” value (RPMI-8226 cells; 50 μM, 9 hour treatment, FIGS. 28, 29) was “Extensive chromatin condensation and nuclear fragmentation”. The “induction of programmed cell death” value (RPMI-8226 cells; FIGS. 28 and 29) was “induced programmed cell death comparable to that induced by the topoisomerase I inhibitor, camptothecin” and the “change in cell morphology” value (cells) was “an increase in cell size”.
In the case of Cc1nc2n(c(=O)c1CCN1CCC(c3noc4cc(F)ccc34)CC1)CCCC2 [risperidone], the “effect on number of viable cells” value (human lymphocytes [1]) is reported as “caused a brief cell increase, followed by the elimination of the cells in culture” and the “effect on allograft (CTL) response” value [2] is reported as “inhibited the allograft response to varying degrees”.
